Experimental data taken from PubChem BioAssay AID1259407 (Chemical Carcinogenesis Research Information System (CCRIS), 2018).
Active and inactive are the calls of the source. The rule behind the calls is not given here.

System: CCRIS mutagenicity, Ames/micronucleus/aberration tests
Experiment: CCRIS mutagenicity studies
[1] = Test System: AMES SALMONELLA TYPHIMURIUM, Strain/Indicator: TA98, Metabolic Activation: NONE, Method: STANDARD PLATE
[2] = Test System: AMES SALMONELLA TYPHIMURIUM, Strain/Indicator: TA98, Metabolic Activation: RAT, LIVER, S-9, AROCLOR 1254, Method: STANDARD PLATE
[3] = Test System: AMES SALMONELLA TYPHIMURIUM, Strain/Indicator: TA100, Metabolic Activation: NONE, Method: STANDARD PLATE
[4] = Test System: AMES SALMONELLA TYPHIMURIUM, Strain/Indicator: TA100, Metabolic Activation: RAT, LIVER, S-9, AROCLOR 1254, Method: STANDARD PLATE
[5] = Test System: AMES SALMONELLA TYPHIMURIUM, Strain/Indicator: TA1537, Metabolic Activation: NONE, Method: STANDARD PLATE
[6] = Test System: CHINESE HAMSTER V-79, Strain/Indicator: V-79/6-THIOGUANINE, Metabolic Activation: NONE
[7] = Test System: MOUSE LYMPHOMA, Strain/Indicator: L5178Y (TK+/TK-), Metabolic Activation: NONE, Method: SUSPENSION/PLATE
[8] = Test System: AMES SALMONELLA TYPHIMURIUM, Strain/Indicator: TA100, Metabolic Activation: NONE

Clc1cccc2cc3ccccc3cc12
mutagenic call [1]: inactive; negative | mutagenic call [2]: inactive; negative | mutagenic call [3]: inactive; negative | mutagenic call [4]: inactive; negative

OC[C@H]1O[C@@H](n2cnc3c(=S)nc[nH]c32)[C@H](O)[C@@H]1O
mutagenic call [1]: inactive; negative | mutagenic call [3]: active; positive | mutagenic call (Test System: AMES SALMONELLA TYPHIMURIUM, Strain/Indicator: TA102, Metabolic Activation: NONE, Method: STANDARD PLATE): inactive; negative | mutagenic call [5]: inactive; negative | mutagenic call (Test System: E. COLI, Strain/Indicator: WP2 (HCR), Metabolic Activation: NONE, Method: STANDARD PLATE): inactive; negative

O[C@@H]1[C@H]2O[C@H]2c2c(cc3ccc4cccc5c6ccccc6c2c3c45)[C@H]1O
mutagenic call (Test System: AMES SALMONELLA TYPHIMURIUM, Strain/Indicator: TA97, Metabolic Activation: NONE, Method: PREINCUBATION (EXPOSURE IN MEDIUM WITH KCL)): active; positive | mutagenic call (Test System: AMES SALMONELLA TYPHIMURIUM, Strain/Indicator: TA97, Metabolic Activation: NONE, Method: PREINCUBATION (EXPOSURE IN MEDIUM WITHOUT KCL)): active; positive | mutagenic call (Test System: AMES SALMONELLA TYPHIMURIUM, Strain/Indicator: TA98, Metabolic Activation: NONE, Method: PREINCUBATION (EXPOSURE IN MEDIUM WITH KCL)): active; positive | mutagenic call (Test System: AMES SALMONELLA TYPHIMURIUM, Strain/Indicator: TA98, Metabolic Activation: NONE, Method: PREINCUBATION (EXPOSURE IN MEDIUM WITHOUT KCL)): active; positive | mutagenic call (Test System: AMES SALMONELLA TYPHIMURIUM, Strain/Indicator: TA100, Metabolic Activation: NONE, Method: PREINCUBATION (EXPOSURE IN MEDIUM WITH KCL)): active; positive | mutagenic call (Test System: AMES SALMONELLA TYPHIMURIUM, Strain/Indicator: TA100, Metabolic Activation: NONE, Method: PREINCUBATION (EXPOSURE IN MEDIUM WITHOUT KCL)): active; positive | mutagenic call (Test System: AMES SALMONELLA TYPHIMURIUM, Strain/Indicator: TA104, Metabolic Activation: NONE, Method: PREINCUBATION (EXPOSURE IN MEDIUM WITH KCL)): active; positive | mutagenic call (Test System: AMES SALMONELLA TYPHIMURIUM, Strain/Indicator: TA104, Metabolic Activation: NONE, Method: PREINCUBATION (EXPOSURE IN MEDIUM WITHOUT KCL)): active; positive | mutagenic call [6]: active; positive

Nc1ncnc2c1ncn2[C@H]1CC[C@@H](CO)O1
mutagenic call (Test System: AMES SALMONELLA TYPHIMURIUM, Strain/Indicator: TA98, Metabolic Activation: HAMSTER, LIVER, S-9, AROCLOR 1254, Method: STANDARD PLATE): inactive; negative | mutagenic call [1]: inactive; negative | mutagenic call [2]: inactive; negative | mutagenic call (Test System: AMES SALMONELLA TYPHIMURIUM, Strain/Indicator: TA100, Metabolic Activation: HAMSTER, LIVER, S-9, AROCLOR 1254, Method: STANDARD PLATE): inactive; negative | mutagenic call [3]: inactive; negative | mutagenic call [4]: inactive; negative | mutagenic call (Test System: AMES SALMONELLA TYPHIMURIUM, Strain/Indicator: TA1535, Metabolic Activation: HAMSTER, LIVER, S-9, AROCLOR 1254, Method: STANDARD PLATE): inactive; negative | mutagenic call (Test System: AMES SALMONELLA TYPHIMURIUM, Strain/Indicator: TA1535, Metabolic Activation: NONE, Method: STANDARD PLATE): inactive; negative | mutagenic call (Test System: AMES SALMONELLA TYPHIMURIUM, Strain/Indicator: TA1535, Metabolic Activation: RAT, LIVER, S-9, AROCLOR 1254, Method: STANDARD PLATE): inactive; negative | mutagenic call (Test System: AMES SALMONELLA TYPHIMURIUM, Strain/Indicator: TA1537, Metabolic Activation: HAMSTER, LIVER, S-9, AROCLOR 1254, Method: STANDARD PLATE): inactive; negative | mutagenic call [5]: inactive; negative | mutagenic call (Test System: AMES SALMONELLA TYPHIMURIUM, Strain/Indicator: TA1537, Metabolic Activation: RAT, LIVER, S-9, AROCLOR 1254, Method: STANDARD PLATE): inactive; negative | mutagenic call (Test System: AMES SALMONELLA TYPHIMURIUM, Strain/Indicator: TA1538, Metabolic Activation: HAMSTER, LIVER, S-9, AROCLOR 1254, Method: STANDARD PLATE): inactive; negative | mutagenic call (Test System: AMES SALMONELLA TYPHIMURIUM, Strain/Indicator: TA1538, Metabolic Activation: NONE, Method: STANDARD PLATE): inactive; negative | mutagenic call (Test System: AMES SALMONELLA TYPHIMURIUM, Strain/Indicator: TA1538, Metabolic Activation: RAT, LIVER, S-9, AROCLOR 1254, Method: STANDARD PLATE): inactive; negative | mutagenic call [7]: active; positive. reevaluation of results: positive | mutagenic call (Test System: MOUSE LYMPHOMA, Strain/Indicator: L5178Y (TK+/TK-), Metabolic Activation: RAT, LIVER, S-9, AROCLOR 1254, Method: SUSPENSION/PLATE): active; positive. reevaluation of results: equivocal

CC(=O)Nc1ccc(S(=O)(=O)Nc2ccccn2)cc1
mutagenic call (Test System: AMES SALMONELLA TYPHIMURIUM, Strain/Indicator: TA98, Metabolic Activation: NONE, Method: PREINCUBATION): inactive; negative | mutagenic call (Test System: AMES SALMONELLA TYPHIMURIUM, Strain/Indicator: TA98, Metabolic Activation: RAT, LIVER, S-9, AROCLOR 1254, Method: PREINCUBATION): inactive; negative | mutagenic call (Test System: AMES SALMONELLA TYPHIMURIUM, Strain/Indicator: TA100, Metabolic Activation: NONE, Method: PREINCUBATION): inactive; negative | mutagenic call (Test System: AMES SALMONELLA TYPHIMURIUM, Strain/Indicator: TA100, Metabolic Activation: RAT, LIVER, S-9, AROCLOR 1254, Method: PREINCUBATION): inactive; negative

CCCCCC(O)/C=C/C=O (stereo unspecified)
mutagenic call (End Point: IN VITRO CHROMOSOMAL ABERRATIONS, Test System: RAT HEPATOCYTES, Metabolic Activation: NONE): active; positive | mutagenic call (End Point: IN VITRO CHROMOSOMAL ABERRATIONS, Test System: SWINE- BRAIN ENDOTHELIAL CELLS, Metabolic Activation: NONE): active; positive | mutagenic call (End Point: IN VITRO MICRONUCLEUS, Test System: RAT HEPATOCYTES, Metabolic Activation: NONE): active; positive | mutagenic call (End Point: IN VITRO MICRONUCLEUS, Test System: SWINE- BRAIN ENDOTHELIAL CELLS, Metabolic Activation: NONE): active; positive | mutagenic call [8]: inactive; negative | mutagenic call (Test System: AMES SALMONELLA TYPHIMURIUM, Strain/Indicator: TA104, Metabolic Activation: NONE): inactive; negative | mutagenic call [6]: active; positive | mutagenic call [7]: active; positive; administered as acetate

CCOC(=O)N(C)C
mutagenic call (Test System: AMES SALMONELLA TYPHIMURIUM, Strain/Indicator: TA98, Metabolic Activation: NONE): inactive; negative | mutagenic call [8]: inactive; negative | mutagenic call (Test System: AMES SALMONELLA TYPHIMURIUM, Strain/Indicator: TA1535, Metabolic Activation: NONE): active; positive | mutagenic call (Test System: AMES SALMONELLA TYPHIMURIUM, Strain/Indicator: TA1535, Metabolic Activation: S-9, AROCLOR 1254): active; positive
